Earlier results, collected in US20190175510A1, “PHARMACEUTICAL MATRIX FORMULATIONS COMPRISING DIMETHYL FUMARATE” (BIOGEN MA INC., priority 2014, published 2019).
Structures can show the parent of a compound that is named as a salt.

Conditions: species not stated

- half-life of MMF: approximately 1 hour
SMILES: COC(=O)/C=C/C(=O)O [MMF, monomethyl fumarate]
